SMILES strings stand for the structures. pKd: −log10 of the molar value. Activity calls are given as the source filed them. Where only a bound is given, the exact number is not on record here.

For assay [1], the target named is Inosine-5'-monophosphate dehydrogenase 2 (Homo sapiens, UniProt P12268).
In assay [2] the target is Protein kinase C delta type (Homo sapiens, UniProt Q05655).
Assay [3] has as its target Mitogen-activated protein kinase 10 (Homo sapiens, UniProt P53779).
The target in assay [4] is Serine/threonine-protein kinase N1 (Homo sapiens, UniProt Q16512).
Assay [5] concerns the target T1, Dual specificity mitogen-activated protein kinase kinase 6 (Homo sapiens, UniProt P52564).
T1 sequence (P52564 whole entry): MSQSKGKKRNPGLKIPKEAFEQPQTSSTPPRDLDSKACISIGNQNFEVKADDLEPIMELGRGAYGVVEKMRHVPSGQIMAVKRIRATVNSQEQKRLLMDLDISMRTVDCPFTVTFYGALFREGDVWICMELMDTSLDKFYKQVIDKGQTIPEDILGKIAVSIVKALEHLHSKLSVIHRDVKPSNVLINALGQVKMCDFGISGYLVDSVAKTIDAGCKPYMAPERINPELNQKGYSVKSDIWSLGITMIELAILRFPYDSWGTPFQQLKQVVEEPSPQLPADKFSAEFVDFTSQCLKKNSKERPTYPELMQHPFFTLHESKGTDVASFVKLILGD

The target in another assay is T2, Heme oxygenase 2 (Homo sapiens, UniProt P30519).
T2 sequence (P30519 whole entry): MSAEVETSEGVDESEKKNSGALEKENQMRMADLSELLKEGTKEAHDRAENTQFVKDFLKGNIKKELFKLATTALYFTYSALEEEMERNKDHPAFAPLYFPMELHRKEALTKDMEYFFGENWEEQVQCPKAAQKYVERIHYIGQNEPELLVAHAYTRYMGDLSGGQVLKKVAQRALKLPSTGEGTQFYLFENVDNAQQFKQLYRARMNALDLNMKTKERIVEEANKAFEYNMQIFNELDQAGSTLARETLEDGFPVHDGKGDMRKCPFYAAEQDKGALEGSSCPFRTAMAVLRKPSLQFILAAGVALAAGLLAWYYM

In assay [6] the target is T3, Acyl-CoA dehydrogenase family member 10 (Homo sapiens, UniProt Q6JQN1).
T3 sequence (Q6JQN1 whole entry): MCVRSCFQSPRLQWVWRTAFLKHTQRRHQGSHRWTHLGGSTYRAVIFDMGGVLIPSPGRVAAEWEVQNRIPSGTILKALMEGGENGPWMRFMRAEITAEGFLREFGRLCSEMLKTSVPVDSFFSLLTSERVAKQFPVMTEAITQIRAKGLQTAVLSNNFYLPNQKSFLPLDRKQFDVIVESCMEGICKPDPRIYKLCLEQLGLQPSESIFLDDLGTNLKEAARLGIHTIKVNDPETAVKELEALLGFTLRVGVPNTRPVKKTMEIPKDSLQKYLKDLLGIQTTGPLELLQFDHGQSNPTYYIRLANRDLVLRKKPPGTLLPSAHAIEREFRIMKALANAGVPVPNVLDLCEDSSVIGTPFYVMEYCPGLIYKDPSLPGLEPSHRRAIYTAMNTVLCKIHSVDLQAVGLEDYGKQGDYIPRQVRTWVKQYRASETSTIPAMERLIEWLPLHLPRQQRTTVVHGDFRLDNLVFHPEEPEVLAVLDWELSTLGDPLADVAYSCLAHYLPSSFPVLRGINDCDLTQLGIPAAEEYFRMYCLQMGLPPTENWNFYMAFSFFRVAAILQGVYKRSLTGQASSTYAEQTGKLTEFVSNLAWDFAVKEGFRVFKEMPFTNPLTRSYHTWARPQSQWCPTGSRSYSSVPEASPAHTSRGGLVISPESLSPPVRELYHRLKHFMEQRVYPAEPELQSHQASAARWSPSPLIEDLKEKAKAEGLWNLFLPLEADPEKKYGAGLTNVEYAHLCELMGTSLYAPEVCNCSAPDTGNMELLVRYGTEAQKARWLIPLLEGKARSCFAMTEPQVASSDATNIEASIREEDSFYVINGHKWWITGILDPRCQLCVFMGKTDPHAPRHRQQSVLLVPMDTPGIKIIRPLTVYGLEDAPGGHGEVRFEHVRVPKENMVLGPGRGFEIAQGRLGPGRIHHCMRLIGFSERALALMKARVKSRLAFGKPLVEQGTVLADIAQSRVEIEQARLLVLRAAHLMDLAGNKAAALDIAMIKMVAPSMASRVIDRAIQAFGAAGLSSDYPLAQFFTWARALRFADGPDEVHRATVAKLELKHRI

The target of assay [7] is Macrophage-stimulating protein receptor (Homo sapiens, UniProt Q04912).
Also: in the data inactive means no Kd found up to 30 µM.

Chain of Mitogen-activated protein kinase 10 (P53779 whole entry): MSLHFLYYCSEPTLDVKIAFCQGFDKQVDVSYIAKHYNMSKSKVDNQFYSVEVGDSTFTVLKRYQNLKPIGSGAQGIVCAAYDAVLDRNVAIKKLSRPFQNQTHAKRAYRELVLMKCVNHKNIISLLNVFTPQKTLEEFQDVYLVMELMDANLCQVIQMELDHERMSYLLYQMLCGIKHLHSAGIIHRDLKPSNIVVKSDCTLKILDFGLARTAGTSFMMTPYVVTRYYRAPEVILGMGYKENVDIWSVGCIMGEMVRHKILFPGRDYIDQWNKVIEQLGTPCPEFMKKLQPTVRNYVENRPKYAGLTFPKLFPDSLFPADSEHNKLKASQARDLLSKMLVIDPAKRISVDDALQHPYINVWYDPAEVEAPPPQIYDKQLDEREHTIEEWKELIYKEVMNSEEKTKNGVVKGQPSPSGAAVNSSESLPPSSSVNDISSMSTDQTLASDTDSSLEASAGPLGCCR
Chain of Macrophage-stimulating protein receptor (Q04912 25-304 limits assumed): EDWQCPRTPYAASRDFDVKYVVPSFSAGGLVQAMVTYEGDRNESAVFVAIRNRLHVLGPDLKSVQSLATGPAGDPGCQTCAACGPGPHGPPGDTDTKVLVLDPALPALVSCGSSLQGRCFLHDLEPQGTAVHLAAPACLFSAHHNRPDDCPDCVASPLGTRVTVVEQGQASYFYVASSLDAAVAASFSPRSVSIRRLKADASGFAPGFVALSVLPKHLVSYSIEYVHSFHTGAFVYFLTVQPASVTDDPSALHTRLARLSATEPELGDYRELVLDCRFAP
Chain of Macrophage-stimulating protein receptor (Q04912 310-1400 limits assumed): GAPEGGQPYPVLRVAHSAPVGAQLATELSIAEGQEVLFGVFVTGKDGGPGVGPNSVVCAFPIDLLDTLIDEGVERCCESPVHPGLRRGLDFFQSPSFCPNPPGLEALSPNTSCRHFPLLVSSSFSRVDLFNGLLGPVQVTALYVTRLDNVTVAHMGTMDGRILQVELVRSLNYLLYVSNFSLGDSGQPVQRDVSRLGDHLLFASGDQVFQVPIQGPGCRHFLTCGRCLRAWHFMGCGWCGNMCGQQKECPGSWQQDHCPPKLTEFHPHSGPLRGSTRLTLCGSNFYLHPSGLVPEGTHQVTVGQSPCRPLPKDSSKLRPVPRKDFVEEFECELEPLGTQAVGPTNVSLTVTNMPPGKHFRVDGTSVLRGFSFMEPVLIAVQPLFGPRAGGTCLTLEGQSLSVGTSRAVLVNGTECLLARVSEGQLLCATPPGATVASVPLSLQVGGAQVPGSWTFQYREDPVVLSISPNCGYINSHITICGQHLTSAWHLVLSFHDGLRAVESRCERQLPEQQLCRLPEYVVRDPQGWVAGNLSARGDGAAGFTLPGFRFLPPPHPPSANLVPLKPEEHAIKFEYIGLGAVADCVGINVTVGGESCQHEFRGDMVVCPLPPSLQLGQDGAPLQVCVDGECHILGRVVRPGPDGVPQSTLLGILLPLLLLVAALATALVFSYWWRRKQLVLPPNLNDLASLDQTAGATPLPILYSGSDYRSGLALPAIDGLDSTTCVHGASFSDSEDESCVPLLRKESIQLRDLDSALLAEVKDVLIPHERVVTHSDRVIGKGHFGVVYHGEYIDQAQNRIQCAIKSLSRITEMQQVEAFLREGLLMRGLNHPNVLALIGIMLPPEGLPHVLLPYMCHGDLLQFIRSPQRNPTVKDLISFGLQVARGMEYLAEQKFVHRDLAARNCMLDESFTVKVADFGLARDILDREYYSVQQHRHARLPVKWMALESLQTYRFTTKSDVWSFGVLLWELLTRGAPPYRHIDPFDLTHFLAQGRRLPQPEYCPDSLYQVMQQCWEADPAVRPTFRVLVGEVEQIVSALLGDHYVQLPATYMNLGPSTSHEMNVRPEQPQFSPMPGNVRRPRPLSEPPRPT
Chain of Serine/threonine-protein kinase N1 (Q16512 whole entry): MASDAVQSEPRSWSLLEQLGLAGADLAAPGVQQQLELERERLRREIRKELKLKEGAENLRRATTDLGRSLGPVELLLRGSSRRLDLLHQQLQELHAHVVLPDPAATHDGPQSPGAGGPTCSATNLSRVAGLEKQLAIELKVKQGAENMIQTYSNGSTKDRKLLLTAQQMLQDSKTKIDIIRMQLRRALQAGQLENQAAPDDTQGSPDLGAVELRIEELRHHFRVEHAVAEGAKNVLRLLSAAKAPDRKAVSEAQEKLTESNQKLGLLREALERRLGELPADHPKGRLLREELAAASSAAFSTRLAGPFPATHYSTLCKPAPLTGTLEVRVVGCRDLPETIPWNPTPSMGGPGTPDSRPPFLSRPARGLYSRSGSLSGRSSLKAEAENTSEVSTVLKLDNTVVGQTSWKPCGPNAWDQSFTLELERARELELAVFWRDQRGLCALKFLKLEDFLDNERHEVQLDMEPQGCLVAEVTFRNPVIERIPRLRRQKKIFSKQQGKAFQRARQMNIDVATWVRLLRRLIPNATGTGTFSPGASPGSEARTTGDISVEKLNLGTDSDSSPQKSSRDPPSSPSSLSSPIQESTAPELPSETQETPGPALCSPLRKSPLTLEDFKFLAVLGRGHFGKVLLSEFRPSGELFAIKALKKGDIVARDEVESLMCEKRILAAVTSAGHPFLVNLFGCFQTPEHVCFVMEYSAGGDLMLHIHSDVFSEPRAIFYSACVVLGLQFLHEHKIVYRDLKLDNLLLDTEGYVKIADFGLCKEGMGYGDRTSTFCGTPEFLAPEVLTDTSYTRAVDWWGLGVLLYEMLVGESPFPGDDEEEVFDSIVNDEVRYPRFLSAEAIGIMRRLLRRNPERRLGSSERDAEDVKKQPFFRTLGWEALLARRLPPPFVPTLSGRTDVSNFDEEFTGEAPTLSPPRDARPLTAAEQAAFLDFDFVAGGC
Chain of Protein kinase C delta type (Q05655 whole entry): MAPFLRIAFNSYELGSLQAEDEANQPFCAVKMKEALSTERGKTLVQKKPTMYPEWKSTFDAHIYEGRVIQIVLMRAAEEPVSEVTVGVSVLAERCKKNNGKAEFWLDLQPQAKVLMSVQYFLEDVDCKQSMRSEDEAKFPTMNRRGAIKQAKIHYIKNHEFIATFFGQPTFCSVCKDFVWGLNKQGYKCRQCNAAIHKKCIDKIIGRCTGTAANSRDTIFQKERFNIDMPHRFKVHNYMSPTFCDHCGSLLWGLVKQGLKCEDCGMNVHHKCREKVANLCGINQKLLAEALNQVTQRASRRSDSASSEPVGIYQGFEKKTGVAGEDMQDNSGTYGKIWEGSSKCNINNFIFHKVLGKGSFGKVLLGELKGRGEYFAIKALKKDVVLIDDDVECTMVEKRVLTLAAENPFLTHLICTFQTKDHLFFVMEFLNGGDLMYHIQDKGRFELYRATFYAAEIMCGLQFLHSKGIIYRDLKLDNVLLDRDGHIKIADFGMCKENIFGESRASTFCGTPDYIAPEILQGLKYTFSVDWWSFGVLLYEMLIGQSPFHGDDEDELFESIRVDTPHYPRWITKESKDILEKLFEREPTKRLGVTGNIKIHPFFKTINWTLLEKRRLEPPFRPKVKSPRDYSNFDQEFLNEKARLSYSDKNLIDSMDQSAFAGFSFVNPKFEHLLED

Take `OCCn1cc(-c2cnc3nnn(Cc4ccc5ncccc5c4)c3n2)cn1` [PF-04217903]: the Kd (in assay [1]; in assay [2]; in assay [3]; in assay [4]; in assay [5]; at Heme oxygenase 2) was > 30 µM (inactive) in each case. Moreover, in assay [6], the Kd (usually the free concentration of one partner at which half of the binding sites on the other are occupied at equilibrium, for simple one-to-one binding) is > 30 µM (inactive).

Consider `CCn1c(-c2nonc2N)nc2c(C#CC(C)(C)O)ncc(OC[C@H]3CCCNC3)c21` [GSK-690693], for which the Kd (in assay [1]; on Heme oxygenase 2; in assay [6]) was > 30 µM (inactive) in each case.

With `Cc1cc(Nc2cc(N3CCN(C)CC3)nc(/C=C/c3ccccc3)n2)n[nH]1` [ENMD-2076], the Kd (in assay [1]; in assay [3]; in assay [4]; in assay [5]; on Heme oxygenase 2; in assay [6]) was > 30 µM (inactive) throughout.

`COC(=O)[C@@]1(O)C[C@H]2O[C@]1(C)n1c3ccccc3c3c4c(c5c6ccccc6n2c5c31)C(=O)NC4` [K-252A]: the Kd in assay [7] is > 30 µM (inactive); in assay [1], > 30 µM (inactive); in assay [3], > 30 µM (inactive); in assay [4], 0.264 µM (active); at Heme oxygenase 2 it was > 30 µM (inactive); in assay [6] it was > 30 µM (inactive).

Turning to `O=C1NC(=O)/C(=C/c2ccc3nccc(-c4ccncc4)c3c2)S1` [GSK-1059615], the Kd (in assay [7]; in assay [2]; in assay [3]; in assay [4]; in assay [5]; at Heme oxygenase 2) was > 30 µM (inactive) in each case.

Turning to `C[C@@H](Nc1cc(F)cc(F)c1)c1cc(C(=O)N(C)C)cc2c(=O)cc(N3CCOCC3)oc12` [AZD-8186], the Kd (in assay [7]; in assay [2]; in assay [3]; in assay [4]; in assay [5]; at Heme oxygenase 2) was > 30 µM (inactive) throughout. Besides, the Kd in assay [6] was > 30 µM (inactive).

For the compound `C=CC(=O)N1CCC(Oc2cc3c(Nc4ccc(Cl)c(Cl)c4F)ncnc3cc2OC)CC1` [POZIOTINIB], the Kd (in assay [7]; in assay [2]; in assay [3]; in assay [4]; in assay [5]; on Heme oxygenase 2) was > 30 µM (inactive) throughout. Also, in assay [6], the Kd is > 30 µM (inactive).

For the compound `Nc1nc(N)c2nc(-c3cccc(O)c3)c(-c3cccc(O)c3)nc2n1` [TG100-115], the Kd (in assay [1]; on Heme oxygenase 2) was > 30 µM (inactive) each time.

As for `CN1CCN(c2ccc3nc(-c4c(N)c5c(F)cccc5[nH]c4=O)[nH]c3c2)CC1` [DOVITINIB], the Kd (in assay [1]; at Heme oxygenase 2; in assay [6]) was > 30 µM (inactive) each time.

Regarding `Cc1cc2c(F)c(Oc3ncnn4cc(OC[C@@H](C)OC(=O)[C@H](C)N)c(C)c34)ccc2[nH]1` [BRIVANIB ALANINATE], the Kd (in assay [7]; in assay [2]; in assay [3]; in assay [4]; in assay [5]; at Heme oxygenase 2) was > 30 µM (inactive) each time. Further, the Kd in assay [6] is > 30 µM (inactive).

Take `O=C(Nc1cccc(Cl)c1)Nc1ncc(CCNc2ncnc3ccsc23)s1` [SNS-314]: the Kd (in assay [1]; in assay [4]; in assay [5]; at Heme oxygenase 2; in assay [6]) was > 30 µM (inactive) throughout.

As for `C[C@@H]1CN(Cc2ccc(F)cc2)[C@@H](C)CN1C(=O)c1cc2c(C(=O)C(=O)N(C)C)cn(C)c2cc1Cl` [TALMAPIMOD], the Kd (in assay [7]; in assay [2]; in assay [3]; in assay [4]; in assay [5]; on Heme oxygenase 2) was > 30 µM (inactive) throughout. Also, the Kd in assay [6] is > 30 µM (inactive).

As to `CCc1cnn2c(NCc3ccc[n+]([O-])c3)cc(N3CCCC[C@H]3CCO)nc12` [DINACICLIB], the Kd (in assay [1]; in assay [2]; in assay [3]; in assay [4]; in assay [5]; on Heme oxygenase 2) was > 30 µM (inactive) throughout. For the same compound, the Kd in assay [6] is > 30 µM (inactive).

Take `COc1cc2nccc(Oc3ccc(NC(=O)NC4CC4)c(Cl)c3)c2cc1C(N)=O` [LENVATINIB]: the Kd (in assay [7]; in assay [1]; in assay [2]; in assay [4]; in assay [5]; at Heme oxygenase 2) was > 30 µM (inactive) in each case. Moreover, the Kd in assay [6] is > 30 µM (inactive).

Regarding `COc1cc(N2CCC(N3CCN(C)CC3)CC2)ccc1Nc1ncnc(Nc2ccccc2S(=O)(=O)C(C)C)n1` [ASP-3026], the Kd (in assay [7]; in assay [2]; in assay [3]; in assay [4]; in assay [5]; at Heme oxygenase 2) was > 30 µM (inactive) each time.

`Cc1nc(N)sc1-c1ccnc(Nc2ccc(N3CCOCC3)cc2)n1` [CYC-116]: the Kd in assay [7] is 0.575 µM (active); in assay [1] it was > 30 µM (inactive); in assay [3] it was 0.147 µM (active); in assay [4] it was 13.2 µM (active); in assay [5] it was > 30 µM (inactive); at Heme oxygenase 2, > 30 µM (inactive). Besides, the negative logarithm of the Kd (pKd) (usually the Kd on a negative log10 scale, so that one unit is a factor of ten) in assay [6] is 6.15.

As to `Cc1ccc(NC(=O)c2ccc(CN3CC[C@H](N(C)C)C3)c(C(F)(F)F)c2)cc1Nc1nccc(-c2cncnc2)n1` [BAFETINIB], the Kd (in assay [7]; in assay [2]; in assay [3]; in assay [4]; in assay [5]; at Heme oxygenase 2) was > 30 µM (inactive) in each case. In assay [6], the Kd is > 30 µM (inactive).

As to `CN(C)C(=O)c1cc2cnc(Nc3ccc(N4CCNCC4)cn3)nc2n1C1CCCC1` [RIBOCICLIB], the Kd (in assay [7]; in assay [2]; in assay [3]; in assay [4]; in assay [5]; at Heme oxygenase 2) was > 30 µM (inactive) in each case. In assay [6], the Kd is > 30 µM (inactive).

For the compound `Cn1cc(-c2ccc3nnc(C(F)(F)c4ccc5ncccc5c4)n3n2)cn1` [JNJ-38877605], the Kd (in assay [7]; in assay [2]; in assay [3]; in assay [4]; in assay [5]; at Heme oxygenase 2) was > 30 µM (inactive) each time. The Kd in assay [6] is > 30 µM (inactive).

In the case of `Cc1cn(-c2cc(NC(=O)c3ccc(C)c(Nc4nccc(-c5cccnc5)n4)c3)cc(C(F)(F)F)c2)cn1` [NILOTINIB], the Kd (in assay [1]; at Heme oxygenase 2; in assay [6]) was > 30 µM (inactive) throughout.

The record behind these values is ChEMBL document CHEMBL3991601, “The target landscape of clinical kinase drugs” (Science, 2017).
